The results in this text go back to PubChem BioAssay (NCI).

Common to all, as to test: growth of human tumour cells (NCI), 48 h
Assay [1] relates to HOP-92 NSCLC.
In assay [2] the test system is LOX IMVI melanoma.
Assay [3] has as its system OVCAR-4 ovarian.
For assay [4], the system named is SNB-19 CNS.
Assay [5] relates to ACHN renal.
Assay [6] relates to MDA-N.
The subject of assay [7] is T-47D breast.
The subject of assay [8] is NCI/ADR-RES ovarian.
The test system of assay [9] is SK-MEL-5 melanoma.
The test system of assay [10] is NCI-H226 lung.
For assay [11], the system named is A549 NSCLC.
In assay [12] the test system is HOP-62 NSCLC.
For assay [13], the system named is DU-145 prostate.
In assay [14] the test system is HCT-15 colon.
Assay [15] concerns UACC-62 melanoma.
The test system of assay [16] is A498 renal.
The test system of assay [17] is K-562 leukemia.
In assay [18] the test system is HCT-116 colon.
For assay [19], the system named is COLO 205 colon.
For assay [20], the system named is BT-549 breast.

Molecules are shown by their SMILES.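 Where inhibition never reached the appropriate level, the endpoint shown equals the highest concentration tested. Otherwise, values were interpolated linearly from a five-concentration, 48-hour dose response in 96-well plates. Definition used: TGI = concentration required for complete inhibition of growth.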 A value given as a limit tells only on which side of the number the result lay.

For `CCOC(=O)C1=C(C)C2C=C(c3cccs3)CC(c3ccc(Cl)cc3)=C2OC1=O` (stereo not given), the TGI was greater than 100 µM in assay [1]; 37.9 µM in [2]; greater than 100 µM in assay [3]; greater than 100 µM in assay [4]; greater than 100 µM in [5]; greater than 100 µM in assay [6]. Further, the TGI in assay [7] was 66.5 µM; in [8], greater than 100 µM; in assay [9] it was greater than 100 µM; in assay [10], greater than 100 µM; in [11], greater than 100 µM; in assay [12], greater than 100 µM. In addition, the TGI in assay [13] was greater than 100 µM; in [14], 56.5 µM; in assay [15], greater than 100 µM; in assay [16] it was greater than 100 µM; in assay [17], 34.4 µM; in assay [18], 69.2 µM. For the same compound, the TGI in assay [19] and in assay [20] was greater than 100 µM in each case.
As for `O=C1NCCN1/N=C/c1c(Cl)n(-c2ccccc2)c2ccccc12`, the TGI stood at 49.7 µM in assay [1]; 38.9 µM in assay [2]; 76.2 µM in assay [3]; 56.9 µM in [4]; 62 µM in [5]; 21.6 µM in assay [6]. The TGI was 41 µM in [7]; 49.6 µM in [8]; 29.3 µM in assay [9]; 54 µM in assay [10]; greater than 100 µM in assay [11]; greater than 100 µM in [12]. Also, the TGI in assay [13] came out at 48.4 µM; in assay [14], 39.9 µM; in assay [15], 41.5 µM; in assay [16] it was 45.8 µM; in [17], 68.1 µM; in assay [18], 45.6 µM. The TGI came out at 40.5 µM in [19] and 35.9 µM in assay [20].
Take `CC1=NN(c2cccc(Cl)c2)C2(C1=C/C=C/c1ccccc1)C(Cl)C(=O)N2c1nc2ccccc2s1` (stereo not given): the TGI is greater than 53.2 µM in assay [1]; 57 µM in [2]; greater than 100 µM in [3]; greater than 100 µM in [4]; greater than 42.3 µM in assay [5]; greater than 100 µM in assay [6]. The TGI in assay [7] was greater than 100 µM; in [8] it was greater than 100 µM; in assay [9] it was greater than 58.7 µM; in assay [10] it was greater than 100 µM; in assay [11], greater than 100 µM; in [12], greater than 100 µM. The TGI in [13] was greater than 38.2 µM; in assay [14] it was greater than 82.1 µM; in assay [15], greater than 100 µM; in assay [16], greater than 66 µM; in assay [17] it was 31 µM; in assay [18], greater than 86.1 µM. The TGI in [19] and in assay [20] was greater than 100 µM each time.
For `NS(=O)(=O)c1cc(Cl)c(NC(=S)NC(=O)Nc2ccc(Cl)c(Cl)c2)c(Cl)c1`, the TGI in [1], in [2], in [3], in [4], in assay [5] and in [6] was greater than 100 µM in each case. In addition, the TGI was greater than 100 µM in [7]; greater than 100 µM in assay [8]; 40.3 µM in [9]; greater than 100 µM in [10]; greater than 100 µM in assay [11]; greater than 100 µM in [12]. In addition, the TGI in assay [13] was greater than 100 µM; in assay [14], greater than 100 µM; in [15], 90.2 µM; in assay [16], 84.4 µM; in assay [17] it was greater than 100 µM; in [18] it was greater than 100 µM. Besides, the TGI in assay [19] was 33.6 µM; in [20] it was greater than 100 µM.
On to `C=CCSc1nnc2cc(CN3CCCC3)c(-c3ccc(Cl)cc3)nn12`, for which the TGI came out at 34.3 µM in [1]; 48.1 µM in [2]; 48 µM in assay [3]; 71.7 µM in assay [4]; 38.3 µM in assay [5]; 34.2 µM in [6]. Further, the TGI in assay [7] is 71.4 µM; in assay [8] it was 56.3 µM; in [9], 31.1 µM; in [10], 26.7 µM; in assay [11] it was greater than 100 µM; in [12], 45.4 µM. Moreover, the TGI in [13] is 43.7 µM; in [14], 45.1 µM; in [15], 27.7 µM; in [16], 35.9 µM; in [17], greater than 100 µM; in assay [18], 28.5 µM. Besides, the TGI in [19] came to 34.5 µM; in assay [20] it was 42.4 µM.
`O=c1[nH]c(=O)n(C2OC(CO)C(O)C2O)c2nc(-c3ccc(-c4ccccc4)cc3)cnc12` (stereo not given): the TGI in assay [1], in [2], in [3], in assay [4], in assay [5] and in assay [6] was greater than 100 µM throughout. Also, the TGI in assay [7], in [8], in [9], in [10], in [11] and in [12] was greater than 100 µM in each case. The TGI in [13], in assay [14], in assay [15], in [16], in assay [17] and in assay [18] was greater than 100 µM throughout. Further, the TGI in assay [19] and in assay [20] was greater than 100 µM in each case.
For the compound `O=[N+]([O-])c1ccc(Oc2c(Cl)cc(S(=O)(=O)/N=C(\NO)Nc3ccc(Cl)cc3)cc2Cl)cc1`, the TGI came to 11.1 µM in [1]; 24.9 µM in assay [2]; 17.3 µM in assay [3]; 29.2 µM in assay [4]; 23.8 µM in assay [5]; 24.8 µM in assay [6]. The TGI in assay [7] amounted to 34.3 µM; in [8], 32.2 µM; in assay [9] it was 22.2 µM; in assay [10] it was 35.3 µM; in assay [11], 27.8 µM; in assay [12] it was 32.7 µM. Also, the TGI came to 29.3 µM in assay [13]; 24.5 µM in [14]; 24.1 µM in assay [15]; 23.3 µM in [16]; 35.9 µM in assay [17]; 22.6 µM in assay [18]. Also, the TGI amounted to 29.9 µM in assay [19] and 25 µM in [20].
As for `CC1=C[C@@H]2Cc3nc4cc(Cl)ccc4c(N)c3[C@H](C1)C2`, the TGI in assay [1] came to 10.8 µM; in [2] it was 22.3 µM; in assay [3], 18.2 µM; in [4] it was 24 µM; in [5] it was 23.1 µM; in [6] it was 31.5 µM. Further, the TGI in assay [7] was 37.4 µM; in [8], 25 µM; in [9], 11.2 µM; in [10] it was 32.5 µM; in assay [11], 34.9 µM; in assay [12] it was 24 µM. Further, the TGI in assay [13] was determined as 27.3 µM; in assay [14] it was 24.3 µM; in assay [15], 31.5 µM; in assay [16] it was 23.4 µM; in assay [17], 14.3 µM; in assay [18], 14.5 µM. In addition, the TGI worked out at 2.92 µM in assay [19] and 31.7 µM in assay [20].
With `Cc1ccc(S(=O)(=O)N/N=C/C2(c3ccccc3)c3ccccc3-c3ccccc32)cc1`, the TGI in assay [1] was 25.5 µM; in [2] it was 26.1 µM; in [3], 24.3 µM; in assay [4], 73 µM; in assay [5], 88.3 µM; in assay [6], 14.9 µM. Besides, the TGI stood at 44 µM in [7]; 24.6 µM in assay [8]; 23.9 µM in assay [9]; 34.1 µM in assay [10]; 19.8 µM in assay [11]; 32.1 µM in assay [12]. Besides, the TGI in assay [13] was 27.1 µM; in [14], 22.4 µM; in assay [15], 27.3 µM; in [16], 33 µM; in [17], greater than 100 µM; in [18], 20.3 µM. Moreover, the TGI in assay [19] came out at 13.8 µM; in assay [20], 27.7 µM.
For the compound `COc1cc(C2c3cc4c(cc3OC(NN)C2C)OCO4)cc(OC)c1OC` (stereo not given), the TGI is 84.8 µM in assay [1]; greater than 100 µM in assay [2]; greater than 100 µM in assay [3]; greater than 100 µM in assay [4]; greater than 100 µM in assay [5]; greater than 100 µM in [6]. Further, the TGI in [7] was greater than 100 µM; in assay [8] it was greater than 100 µM; in assay [9], greater than 26.8 µM; in assay [10], greater than 24.4 µM; in assay [11], greater than 100 µM; in [12], 8.55 µM. Moreover, the TGI in assay [13] is greater than 100 µM; in assay [14], greater than 37.4 µM; in assay [15] it was greater than 100 µM; in assay [16], 0.709 µM; in assay [17], greater than 31.1 µM; in [18], greater than 28.2 µM. In addition, the values for the TGI in assay [19] and in assay [20] were 13.9 µM and greater than 100 µM, respectively.
With `COC(=O)C1CCC(=O)N1C(c1ccc(OC)cc1)c1ccc2c(c1)OCO2` (stereo not given), the TGI in assay [1] is greater than 100 µM; in assay [2] it was greater than 100 µM; in assay [3], greater than 100 µM; in assay [4], greater than 100 µM; in assay [5], greater than 100 µM; in assay [6], 27.3 µM. Also, the TGI is greater than 100 µM in [7]; greater than 100 µM in assay [8]; 81.7 µM in [9]; greater than 100 µM in assay [10]; greater than 100 µM in [11]; greater than 100 µM in assay [12]. Besides, the TGI in assay [13], in assay [14], in assay [15], in [16], in assay [17] and in assay [18] was greater than 100 µM each time. Also, the TGI in [19] and in assay [20] was greater than 100 µM in each case.
